Assays:
[1] = molecular target: T1, human dopamine D3 receptors (Homo sapiens, UniProt P35462); assay: Dopamine D3 receptor binding, [125I]-iodosulpride displacement; conditions: membranes of HEK-293 cells with human D3 receptors, 0.1 nM [125I]-iodosulpride
T1 construct: expressed in transfected cells; host or cells: HEK-293
How it was run: (§1)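 Competitive radioligand binding at 25 °C for 60 min in triplicate, in Tris buffer with NaCl, KCl, CaCl2, MgCl2 and 0.1% BSA at pH 7.4. One buffer also held 10 μM quinolone and 0.1% ascorbic acid. Bound radioactivity was collected on GF/B filters and counted by liquid scintillation.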

[2] = molecular target: T2, human dopamine D2L receptors (long isoform) (Homo sapiens, UniProt P14416); assay: Dopamine D2L receptor binding, [125I]-iodospiperone displacement; conditions: selectivity ratio Ki (D2L)/Ki (D3)
T2 construct: expressed in transfected cells; host or cells: HEK-293
T2 sequence (P14416 whole entry, canonical isoform): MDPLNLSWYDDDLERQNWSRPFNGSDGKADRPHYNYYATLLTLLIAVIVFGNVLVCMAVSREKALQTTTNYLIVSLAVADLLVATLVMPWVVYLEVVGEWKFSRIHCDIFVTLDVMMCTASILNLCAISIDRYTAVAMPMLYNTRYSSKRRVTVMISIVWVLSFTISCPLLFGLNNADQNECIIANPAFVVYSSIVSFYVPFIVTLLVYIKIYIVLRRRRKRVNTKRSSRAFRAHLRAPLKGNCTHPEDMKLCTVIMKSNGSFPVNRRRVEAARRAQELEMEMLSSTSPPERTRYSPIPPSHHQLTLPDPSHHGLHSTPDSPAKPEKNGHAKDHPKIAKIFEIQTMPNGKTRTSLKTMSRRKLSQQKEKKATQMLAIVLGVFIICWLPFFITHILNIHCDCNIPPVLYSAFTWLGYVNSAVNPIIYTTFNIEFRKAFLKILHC
How it was run: as §1

[3] = Determination of the microsomal half-life / microsomal clearance; type: in vitro ADME; conditions: human liver microsomes, 0.5 μM test substance, 0.25 mg microsomal protein/ml, pH 7.4, 37° C.
How it was run: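 Compound at 0.5 μM was preincubated 5 min at 37 °C with rat, human or other liver microsomes (0.25 mg protein/ml) in 0.05 M potassium phosphate, pH 7.4; NADPH (1 mg/mL) started the reaction. Parent remaining was measured by MS/MS at 0–30 min. T1/2 assumed first-order kinetics; mCl = ln2/T1/2/(microsomal protein mg/ml)×1000 […].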

hERG cardiac K+ channel = molecular target: T3, hERG cardiac K+ channel (Homo sapiens, UniProt Q12809); assay: Blocking the hERG channel, [3H]dofetilide displacement; type: binding; conditions: membrane homogenate of HEK 293 cells with hERG K+ channels
T3 construct: expressed in transfected cells; host or cells: HEK-293
T3 sequence (Q12809 whole entry): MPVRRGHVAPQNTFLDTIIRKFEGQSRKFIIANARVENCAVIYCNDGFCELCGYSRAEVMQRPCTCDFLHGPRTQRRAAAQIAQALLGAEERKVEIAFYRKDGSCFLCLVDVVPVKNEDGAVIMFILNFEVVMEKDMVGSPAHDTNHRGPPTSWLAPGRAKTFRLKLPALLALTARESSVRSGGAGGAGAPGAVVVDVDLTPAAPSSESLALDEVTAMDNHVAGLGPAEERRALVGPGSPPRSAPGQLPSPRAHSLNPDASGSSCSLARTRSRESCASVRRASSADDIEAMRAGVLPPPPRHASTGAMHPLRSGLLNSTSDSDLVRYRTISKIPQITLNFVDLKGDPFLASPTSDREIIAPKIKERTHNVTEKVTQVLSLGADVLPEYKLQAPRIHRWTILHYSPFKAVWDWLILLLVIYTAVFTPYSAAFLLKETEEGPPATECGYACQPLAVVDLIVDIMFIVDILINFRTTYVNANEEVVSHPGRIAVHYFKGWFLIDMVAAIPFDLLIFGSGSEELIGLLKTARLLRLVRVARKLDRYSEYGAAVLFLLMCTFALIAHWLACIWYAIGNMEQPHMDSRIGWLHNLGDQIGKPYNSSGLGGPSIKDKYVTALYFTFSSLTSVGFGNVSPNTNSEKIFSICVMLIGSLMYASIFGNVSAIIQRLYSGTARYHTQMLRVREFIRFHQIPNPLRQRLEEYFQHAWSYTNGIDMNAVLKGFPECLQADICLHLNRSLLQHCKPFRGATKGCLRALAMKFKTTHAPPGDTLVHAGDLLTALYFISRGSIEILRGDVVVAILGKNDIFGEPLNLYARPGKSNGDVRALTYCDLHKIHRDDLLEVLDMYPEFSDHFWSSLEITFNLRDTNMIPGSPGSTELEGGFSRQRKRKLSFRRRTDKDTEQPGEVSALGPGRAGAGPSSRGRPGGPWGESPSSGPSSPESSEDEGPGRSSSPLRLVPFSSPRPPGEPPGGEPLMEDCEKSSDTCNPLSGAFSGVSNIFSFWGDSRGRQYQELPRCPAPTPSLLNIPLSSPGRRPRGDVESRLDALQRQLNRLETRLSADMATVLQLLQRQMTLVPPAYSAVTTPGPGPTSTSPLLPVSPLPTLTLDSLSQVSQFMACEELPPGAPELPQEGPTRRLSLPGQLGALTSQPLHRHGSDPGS
Experimental: The binding affinity of test drugs for the hERG cardiac K^+ channel was determined by their ability to displace tritiated dofetilide (a class III antiarrhythmic drug and potent hERG blocker) in membrane homogenates from HEK-293 cells heterogeneously expressing the hERG channel. The assay was performed as previously described G. J. Diaz et al., Journal of Pharmacological and Toxicological Methods, 50 (2004), 187-199). For this, drug dilutions were prepared from 10 mM DMSO stocks and the following were added to a 96-well polystyrene plate (Perkin-Elmer Optiplate): 20 μl of assay binding buffer (for total bounds), or […] astemizole (for non-specific bounds), or test drug, 50 μl of [^3H]dofetilide (20 nM, ˜80 Ci/mmol specific activity), and 130 μl of membrane homogenate from HEK 293 cells stably transfected with hERG K^+ channels (final protein concentration of 30 μg per well). The plates were incubated at ambient temperature for […], aspirated onto GF/B filter plates (Perkin-Elmer), and washed with 2 ml of cold wash buffer. After allowing the plates to dry, 50 μl of scintillant (Perkin-Elmer MicroScint 20) were added to each well and the radioactivity was counted in a Perkin-Elmer Topcount NXT scintillation counter. […]

T1 sequence (P35462 whole entry): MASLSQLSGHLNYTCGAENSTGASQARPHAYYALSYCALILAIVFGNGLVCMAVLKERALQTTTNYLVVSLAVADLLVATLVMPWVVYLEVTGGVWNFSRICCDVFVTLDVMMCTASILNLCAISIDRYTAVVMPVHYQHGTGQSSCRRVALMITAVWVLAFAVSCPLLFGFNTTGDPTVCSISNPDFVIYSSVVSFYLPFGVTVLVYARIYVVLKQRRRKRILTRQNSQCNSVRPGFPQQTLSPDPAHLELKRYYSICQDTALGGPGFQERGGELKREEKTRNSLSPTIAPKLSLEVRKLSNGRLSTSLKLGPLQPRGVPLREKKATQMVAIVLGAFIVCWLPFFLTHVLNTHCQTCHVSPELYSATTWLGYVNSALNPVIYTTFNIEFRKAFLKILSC

Ki [1]	D2/D3, Ki (D2L)/Ki (D3) [2]	Human mCl [3]	SMILES	IC50 (hERG cardiac K+ channel)
< 10 nM	+++ (+++>50)	+ (+: 20-120 μl min^−1 mg^−1)	COCCc1cc(N2CCN(CC[C@H]3CC[C@H](NC(=O)[C@H]4CC[C@H](O)CC4)CC3)C[C@H]2C)nc(C(C)(C)C)n1 [Compound 34, trans-N-[trans-4-[2-[(3R)-4-[2-tert-butyl-6-(2-methoxyethyl)pyrimidin-4-yl]-3-methyl-piperazin-1-yl]ethyl]cyclohexyl]-4-hydroxy-cyclohexanecarboxamide]	
< 10 nM	+ (+>10)	+ (+: 20-120 μl min^−1 mg^−1)	CC(C)(C)c1nc(C2CCCC2)cc(N2CCN(CC[C@H]3CC[C@H](NC(=O)[C@H]4CC[C@H](O)CC4)CC3)CC2)n1 [Compound 35, trans-N-[trans-4-[2-[4-(2-tert-butyl-6-cyclopentyl-pyrimidin-4-yl)piperazin-1-yl]ethyl]cyclohexyl]-4-hydroxy-cyclohexanecarboxamide]	
< 10 nM	+++ (+++>50)	+ (+: 20-120 μl min^−1 mg^−1)	CC(C)(C)c1nc(C2CCCC2)cc(N2CCN(CC[C@H]3CC[C@@H](NC(=O)[C@H]4CC[C@H](O)CC4)CC3)CC2)n1 [Compound 36, trans-N-[cis-4-[2-[4-(2-tert-butyl-6-cyclopentyl-pyrimidin-4-yl)piperazin-1-yl]ethyl]cyclohexyl]-4-hydroxy-cyclohexanecarboxamide]	
< 10 nM	+++ (+++>50)	+ (+: 20-120 μl min^−1 mg^−1)	COCc1cc(N2CCN(CC[C@H]3CC[C@H](NC(=O)[C@H]4CC[C@H](O)CC4)CC3)CC2)nc(C(C)(C)C)n1 [Compound 37, trans-N-[trans-4-[2-[4-[2-tert-butyl-6-(methoxymethyl)pyrimidin-4-yl]piperazin-1-yl]ethyl]cyclohexyl]-4-hydroxy-cyclohexanecarboxamide]	

SMILES	Ki [1]	D2/D3, Ki (D2L)/Ki (D3) [2]	Human mCl [3]	IC50 (hERG cardiac K+ channel)
CC(C)(C)c1nc(C2CCC2)cc(N2CCN(CC[C@H]3CC[C@H](NC(=O)[C@H]4CC[C@H](O)CC4)CC3)CC2)n1 [Compound 1, trans-N-[trans-4-[2-[4-(2-tert-butyl-6-cyclobutyl-pyrimidin-4-yl)piperazin-1-yl]ethyl]cyclohexyl]-4-hydroxy-cyclohexanecarboxamide]	< 10 nM	+++ (+++>50)	+ (+: 20-120 μl min^−1 mg^−1)	> 10 µM
CC(C)(C)c1nc(C2CCC2)cc(N2CCN(CC[C@H]3CC[C@H](NC(=O)[C@H]4C[C@H](O)C4)CC3)CC2)n1.O=C(O)C(F)(F)F [Compound 38, trans-N-[trans-4-[2-[4-(2-tert-butyl-6-cyclobutyl-pyrimidin-4-yl)piperazin-1-yl]ethyl]cyclohexyl]-3-hydroxy-cyclobutanecarboxamide; 2,2,2-trifluoroacetic acid]	< 10 nM	++ (++>20)	++ (++: <20 μl min^−1 mg^−1)	
CC(C)(C)c1nc(C2CCC2)cc(N2CCN(CC[C@H]3C[C@H](NC(=O)[C@H]4C[C@H](O)C4)C3)CC2)n1.O=C(O)C(F)(F)F [Compound 39, trans-N-[trans-3-[2-[4-(2-tert-butyl-6-cyclobutyl-pyrimidin-4-yl)piperazin-1-yl]ethyl]cyclobutyl]-3-hydroxy-cyclobutanecarboxamide; 2,2,2-trifluoroacetic acid]	< 10 nM	+++ (+++>50)	++ (++: <20 μl min^−1 mg^−1)	

— patent US9388141B2, “Acylaminocycloalkyl compounds suitable for treating disorders that respond to modulation of dopamine D3 receptor” (AbbVie Deutschland GmbH & Co. KG, priority 2013, dated 2016)
